The numbers were not newly measured in patent US9522876B2, “Cytotoxic and anti-mitotic compounds, and methods of using the same” (ZYMEWORKS INC., priority 2013, dated 2016), which cites them from elsewhere.

In the series the test system is cells. Particulars: related art.

For the compound `CN[C@H](C(=O)N[C@H](C(=O)N(C)[C@H](/C=C(\C)C(=O)O)C(C)C)C(C)(C)C)C(C)(C)c1ccccc1` [HT1-286], the anti-mitotic activity result is reported as “potent anti-mitotic activity”.
For `CN[C@H](C(=O)N[C@H](C(=O)N(C)[C@H](/C=C(\C)C(=O)O)C(C)C)C(C)(C)C)C(C)(C)c1cn(C)c2ccccc12` [hemiasterlin], the anti-mitotic activity entry was “causes microtubule depolymerization and mitotic arrest in cells”.
